Assay results published in patent US8071744B2, “TRP/HIS exchange and kynurenin induced TRP transport” (Carnegie Institution of Washington, priority 2007, dated 2011).

How the values were obtained:
[1] = test system: COS-7 cells; assay: Ratio imaging of intracellular tryptophan in perfused COS-7 cells expressing FLIPW-CTYT (uptake and exchange); assay type: cell-based, monkey; settings: for tryptophan export from tryptophan-preloaded cells (counterexchange): extracellular amino acids at 100 μM, DL-HK 200-1000 μM; for effect on the uptake rate of 100 μM L-tryptophan: inhibitors at 5 mM
Description: (§1) Tissue culture and transfection. For cytosolic expression in COS-7 cells, the gene encoding CTYT was amplified by PCR with primers encoding unique BamHI and EcoRI restriction sites at the 5′ and 3′ end, respectively, and cloned into BamHI/EcoRI digested peDNA3.1(+) vector (Invitrogen), resulting in plasmid pTK222. COS-7 cells were grown in Dulbecco's modified Eagle's medium (high glucose; DMEM, Gibco) with 10% fetal calf serum and 50 μg; ml penicillin and 50 μg/ml streptomycin (Gibco). Cells were cultured at 37° C. and 5% CO2. For imaging, cells were cultured in 8-well LabTekII German tissue culture glass slides (Nalg Nunc International) and transiently transfected at 50-70% confluence using Lipofectamine 2000 Reagent (Invitrogen) in Opti-MEM I reduced serum medium (Gibco): After transfection, cells were cultured for 16 hours in Opti-MEM followed by 3 hours in DMEM prior to imaging.
Imaging. Ratio imaging was performed on an inverted fluorescence microscope (DM IRE2, Leica) with a Quant EM digital camera (Photometrics) and 20× oil immersion, 63× water immersion lenses (HC PL APO 20×/0.7 or HCX PL APO, Leica, Germany). Dual emission intensity ratios were simultaneously recorded using a DualView with an OI-5-EM filter set (eCFP 480/30; eYFP 535/40; Optical 17 Insights, USA) and Metafluor 6.3r6 software (Molecular Devices, USA). A Sutter Instruments Lambda DG4 provided excitation. Images were acquired within the linear detection range of the camera and exposure times varied between 50 to 200 ms, depending on the expression level, with software binning between 2 and 3. […] Cells were perfused with Tyrode's buffer at flow rates of 1.0 ml/min in a vacuum chamber with a total volume of 0.1 ml. Inhibitors BCH and MeIAB were used at 5 mM concentrations. For determination of the substrate specificity of the tryptophan exchange, all 20 amino acids were tested at 100 μM concentrations.

[2] = target: T1, FLIPW-CTYT (Escherichia coli, UniProt P0A881); assay: In vitro FRET titration of FLIPW-CTYT with tryptophan substrates and kynurenines; assay type: binding, E. coli; settings: data not shown
T1 construct: Venus (YFP variant); made in house; host or cells: E. coli BL21(DE3)gold
Description: (§2) In vitro characterization of FLIPW and FLIPpur sensors. […] The eCFP emission used for the ratio calculation was determined at 485 nm. Protein was diluted to give Venus/eYFP readouts of 20,000 to 30,000 at a manual gain between 70-75. By using the change in FRET ratio upon binding of ligand, affinity constants (Kd) were determined by fitting the titration curves to a single-site-binding isotherm: R=Rapo+(Rsat−Rapo)·(n·[L])/(Kd+[L]) with [L], ligand concentration; n, number of equal binding sites; R, ratio; Rapo, ratio in the absence of ligand; and Rsat, ratio at saturation with ligand. Three independent protein preparations were analyzed and each protein preparation was analyzed in triplicate.

[3] = target: unmodified TrpR (Escherichia coli, UniProt P0A881); settings: cited from earlier work
[4] = target: T2, FLIPW-CTY (Escherichia coli, UniProt P0A881); assay: In vitro FRET titration of FLIPW-CTY with tryptophan substrates; assay type: binding, E. coli
T2 construct: fused on or other part: eCFP at the N-terminus and Venus (YFP variant) at the C-terminus as FRET reporter handles; pRSETb vector leader; Gateway att-derived linkers
Description: as §2

[5] = target: LAT1 (Homo sapiens, UniProt Q01650); settings: oocytes; sum of free, incorporated and degraded tryptophan; cited from earlier work
LAT1, sequence (Q01650 whole entry): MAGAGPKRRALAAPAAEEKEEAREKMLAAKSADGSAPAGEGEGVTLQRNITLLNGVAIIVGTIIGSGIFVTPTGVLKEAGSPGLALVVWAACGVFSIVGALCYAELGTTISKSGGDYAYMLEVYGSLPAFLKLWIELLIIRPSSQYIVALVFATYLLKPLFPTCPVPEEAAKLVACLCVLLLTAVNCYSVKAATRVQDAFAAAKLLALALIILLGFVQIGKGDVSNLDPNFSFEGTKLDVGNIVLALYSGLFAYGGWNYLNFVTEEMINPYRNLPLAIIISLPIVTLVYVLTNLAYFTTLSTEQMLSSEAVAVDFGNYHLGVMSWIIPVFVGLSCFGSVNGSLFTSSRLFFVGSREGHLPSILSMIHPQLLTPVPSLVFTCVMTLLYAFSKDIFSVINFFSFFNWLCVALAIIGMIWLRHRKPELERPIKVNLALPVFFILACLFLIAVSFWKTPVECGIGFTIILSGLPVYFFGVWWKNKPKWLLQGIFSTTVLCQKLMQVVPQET

[6] = test system: COS-7 cells; settings: read-out: apparent KM for combined transport and metabolism; 96-well microplate, Michaelis-Menten fit of FRET increase rate, 0.05-25 μM L-tryptophan
Description: as §1

[7] = test system: KB cells; assay: FRET imaging of intracellular tryptophan in interferon-gamma treated KB cells; assay type: cell-based, human; settings: IFNγ 500 U/ml, perfusion with Tyrode's buffer
Description: It was also assessed whether affecting the metabolism of tryptophan could be monitored using the FRET nanosensors. The induction of indoleamine 2,3-dioxygenase (IDO) by interferon-gamma in KB cells has been described by Ozaki et al. (Proc. Natl. Acad. Sci. U.S.A. (1988)85: 1242-1246). Indoleamine 2,3-dioxygenase degrades tryptophan to formyl-kynurenine in the cytosol. Accordingly, KB cells were seeded at 10%, 25%, 50% dilution (derived from a suspension that was from ˜90% confluent plate). Interferon gamma (IFNγ) was added at 500 and 1000 U/ml. KB cells used as a control (i.e. no IFNγ) were seeded at 10% dilution only. KB cells were incubated in growth medium (MEM-alpha, 10° A FBS (fetal bovine serum), penicillin/streptomycin) and then in OPTIMEM for 4 days prior to imaging. Cells were transfected (in OPTIMEM) with the pTK222c construct 1 day prior to imaging. IFNγ was maintained during transfection in OPTIMEM. Three hours prior to imaging, the cells were incubated in growth medium (containing IFNγ in the respective cultures). After three hours, the growth medium was exchanged with Tyrode's solution and the cells were kept in incubation chamber until analysis. The cells were perfused with 1 μM, 5 μM, 50 μM, and 100 μM L-tryptophan in Tyrode's solution.

N[C@@H](Cc1ccc(O)cc1)C(=O)O [tyrosine]
tryptophan export from tryptophan-preloaded cells (counterexchange) [1]: able to promote tryptophan export

Nc1c(O)cccc1C(=O)CC(N)C(=O)O (stereo not drawn) [HK, 3-hydroxy-kynurenine]
tryptophan export from tryptophan-preloaded cells (counterexchange) [1]: resulted in reduction of the fluorophore emission ratios in the COS-7 cells, evidencing tryptophan export
FLIPW-CTYT response or interference with tryptophan binding in vitro [2]: did not result in a FLIPW-CTYT response or interfere with tryptophan binding to the sensor

NC1(C(=O)O)CC2CCC1C2 (stereo not drawn) [BCH, 2-aminobicyclo-(2,2,1)-heptane-2-carboxylic acid]
effect on the uptake rate of 100 μM L-tryptophan [1]: decreased the uptake of tryptophan

Nc1ccccc1C(=O)CC(N)C(=O)O (stereo not drawn) [K, kynurenine]
tryptophan export from tryptophan-preloaded cells (counterexchange) [1]: resulted in reduction of the fluorophore emission ratios in the COS-7 cells, evidencing tryptophan export
FLIPW-CTYT response or interference with tryptophan binding in vitro [2]: did not result in a FLIPW-CTYT response or interfere with tryptophan binding to the sensor

N[C@@H](Cc1c[nH]cn1)C(=O)O [histidine, L-histidine]
tryptophan export from tryptophan-preloaded cells (counterexchange) [1]: able to promote tryptophan export

CC(C)C[C@H](N)C(=O)O [leucine]
tryptophan export from tryptophan-preloaded cells (counterexchange) [1]: able to promote tryptophan export

CC(C)[C@H](N)C(=O)O [valine]
tryptophan export from tryptophan-preloaded cells (counterexchange) [1]: able to promote tryptophan export

CSCC[C@H](N)C(=O)O [methionine]
tryptophan export from tryptophan-preloaded cells (counterexchange) [1]: able to promote tryptophan export

N[C@H](Cc1c[nH]c2ccccc12)C(=O)O [D-tryptophan]
reduced affinity of unmodified TrpR compared to L-tryptophan [3]: 20 fold
concentration for decrease of FRET ratio relative to L-tryptophan [4]: about 5 fold

Nc1c(O)cccc1C(=O)O [HAA, hydroxy-anthranilic acid]
tryptophan export from tryptophan-preloaded cells (counterexchange) [1]: did not result in tryptophan export
FLIPW-CTYT response or interference with tryptophan binding in vitro [2]: did not result in a FLIPW-CTYT response or interfere with tryptophan binding to the sensor

CNC(C)(C)C(=O)O
effect on the uptake rate of 100 μM L-tryptophan [1]: did not decrease uptake rates

N[C@@H](Cc1ccccc1)C(=O)O [phenylalanine]
tryptophan export from tryptophan-preloaded cells (counterexchange) [1]: able to promote tryptophan export

CC[C@H](C)[C@H](N)C(=O)O [isoleucine]
tryptophan export from tryptophan-preloaded cells (counterexchange) [1]: able to promote tryptophan export

N[C@@H](Cc1c[nH]c2ccccc12)C(=O)O [L-tryptophan]
affinity of LAT1 for tryptophan uptake [5]: 21.4 µM
affinity of the cells for combined uptake and metabolism of tryptophan ([1]; perfusion imaging, Michaelis-Menten fit): 2.6 ± 1.1 µM
Km [6]: 0.88 ± 0.27 µM

B1: IFNγ: cytokine interferon gamma, induces indoleamine 2,3-dioxygenase in KB cells (protein, UniProt P01579 24-161, looked up)
Interferon gamma: QDPYVKEAENLKKYFNAGHSDVADNGTLFLGILKNWKEESDRKIMQSQIVSFYFKLFKNFKDDQSIQKSVETIKEDMNVKFFNSNKKKRDDFEKLTNYSVTDLNVQRKAIHELIQVMAELSPAAKTGKRKRSQMLFRG
effect on intracellular tryptophan concentration [7]: lower the intracellular tryptophan concentration
